Source: patent US20250214998A1, “CYCLIC COMPOUNDS AS RECEPTOR MODULATING THERAPEUTICS AND METHODS AND USES THEREOF” (BIONOMICS LIMITED, priority 2018, published 2025)

Tests used:
MDCK-MDR1 cells = experiment: A2B permeability (Papp) in MDCK-MDR1 cell monolayers; format: in vitro ADME; set-up: dose or concentration left out as unconfirmed; conditions: MDCK-MDR1 monolayer, A-B direction, HBSS pH 7.4, 60 min, 37° C.
Method: (§1) MDCK-MDR1 cells obtained from the NIH (Rockville, MD, USA) are used between passage numbers 6-30. Cells are seeded onto Millipore Multiscreen Transwell plates at 3.4×10^5 cells/cm2. The cells are cultured in DMEM and media is changed on day 3. On day 4 the permeability study is performed. Cell culture and assay incubations are carried out at 37° C. in an atmosphere of 5% CO2 with a relative humidity of 95%. On the day of the assay, the monolayers are prepared by rinsing both apical and basolateral surfaces twice with Hanks Balanced Salt Solution (HBSS) at the desired pH warmed to 37° C. Cells are then incubated with HBSS at the desired pH in both apical and basolateral compartments for 40 min to stabilise physiological parameters.
(§2) The dosing solutions are prepared by diluting test compound with assay buffer to give a final test compound concentration of […] (final DMSO concentration of 1% v/v). The fluorescent integrity marker lucifer yellow is also included in the dosing solution. […]
(§3) Test compound permeability is assessed in duplicate. […]
(§4) Test and control compounds are quantified by LC-MS/MS cassette analysis using a 7-point calibration with appropriate dilution of the samples. […] The starting concentration (CO) is determined from the dosing solution and the experimental recovery calculated from CO and both apical and basolateral compartment concentrations.
(§5) The integrity of the monolayer throughout the experiment is checked by monitoring lucifer yellow permeation using fluorimetric analysis. […] If a lucifer yellow Papp value is above a pre-defined threshold in one well, but the derived Papp result for test compound or marker compound in that well is qualitatively similar to that determined in the remaining replicate well (within the lucifer yellow threshold) then, based upon the scientific judgement of the responsible scientist, the cell monolayer may be considered acceptable. […] If this re-occurs upon repeat in both wells then toxicity or inherent fluorescence of the test compound is assumed. […]

[1] = as above; format: in vitro ADME; set-up: dose or concentration left out as unconfirmed; conditions: dog; MDCK-MDR1 monolayer, A-B direction, HBSS pH 7.4, 60 min, 37° C.
Method: as §1, §2, §3, §4, §5

| Papp A→B at 60 min [1] [×10⁻⁶ cm/s] | SMILES | A2B Papp (MDCK-MDR1 cells) |
| --- | --- | --- |
| – | CCn1cc(C(=O)N2CC3(CCOCC3)C2)c(=O)c2cc(OC3Cc4ccccc4C3)cnc21 [Example 23, 1-Ethyl-6-indan-2-yloxy-3-(7-oxa-2-azaspiro[3.5]nonane-2-carbonyl)-1,8-naphthyridin-4-one] | 23 1.24 10^−6 cm/s |
| 0.87 | CCn1cc(C(=O)N2C[C@H]3C[C@@H]2CO3)c(=O)c2cc(OC3Cc4ccccc4C3)cnc21 (stereo in doubt) [Example 17, 1-Ethyl-6-indan-2-yloxy-3-[(1R,4R)-2-oxa-5-azabicyclo[2.2.1]heptane-5-carbonyl]-1,8-naphthyridin-4-one] | – |
| – | CCn1cc(C(=O)N2C3COCC2C3)c(=O)c2cc(OC3Cc4ccccc4C3)cnc21 [Example 16, 1-Ethyl-6-indan-2-yloxy-3-(3-oxa-6-azabicyclo[3.1.1]heptane-6-carbonyl)-1,8-naphthyridin-4-one] | 16 2.06 10^−6 cm/s |
